The text below walks through data of the Kinase Knowledgebase extract (Sharma et al. 2016).

The target of the test is MAPK14 (human) (UniProt Q16539). As to the kind of experiment: Inhibition of MAPK14 Kinase Activity.

In general, IC50 refers to the midpoint of a concentration-inhibition curve. Read a low IC50 as higher potency.

Sequence of MAPK14 (human) (Q16539 whole entry, looked up): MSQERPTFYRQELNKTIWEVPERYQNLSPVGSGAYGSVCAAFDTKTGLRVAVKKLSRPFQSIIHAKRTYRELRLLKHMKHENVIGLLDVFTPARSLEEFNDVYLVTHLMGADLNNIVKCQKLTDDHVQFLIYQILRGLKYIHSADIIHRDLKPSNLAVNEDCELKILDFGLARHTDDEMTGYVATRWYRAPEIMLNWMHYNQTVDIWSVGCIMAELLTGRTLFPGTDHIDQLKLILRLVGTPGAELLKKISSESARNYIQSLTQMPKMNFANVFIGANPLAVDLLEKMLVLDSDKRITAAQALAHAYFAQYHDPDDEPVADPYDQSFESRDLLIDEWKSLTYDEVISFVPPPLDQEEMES

`CC(=O)c1sc2c(ccc(=O)n2-c2ccccc2)c1Nc1ccccc1`: the IC50 was at most 1000 nM. With `CCOC(=O)c1sc2c(ccc(=O)n2-c2ccccc2)c1Nc1ccc(F)c(Cl)c1`, the IC50 was at most 1000 nM. Then `O=C(c1sc2c(ccc(=O)n2-c2ccccc2)c1Nc1cccc(Cl)c1)N1CCCC1`, with at most 1000 nM; and `NC(=O)c1sc2c(ccc(=O)n2-c2ccc(C(O)CO)cc2)c1Nc1ccccc1` (configuration not stated), with at most 1000 nM; and `NC(=O)c1sc2c(ccc(=O)n2-c2ccccc2)c1Nc1cc(Cl)cc(Cl)c1`, with at most 1000 nM. On to `Cc1ccc(Nc2c(C#N)sc3c2ccc(=O)n3-c2ccccc2)cc1Br`, for which the IC50 is at most 1000 nM.

Molecule `NC(=O)c1sc2c(ccc(=O)n2-c2ccccc2)c1Nc1cccc(Br)c1` had an IC50 of at most 1000 nM. Then `Cc1cccc(Nc2c(C(N)=O)sc3c2ccc(=O)n3-c2ccccc2)c1`, with at most 1000 nM; and `CN(C)c1ccc(-n2c(=O)ccc3c(Nc4ccccc4)c(C(=O)NCCN4CCCCC4)sc32)cc1`, with at most 1000 nM; and `CN(C)CCN(C)C(=O)c1sc2c(ccc(=O)n2-c2ccccc2)c1Nc1ccccc1`, with at most 1000 nM.

For `N#Cc1sc2c(ccc(=O)n2-c2ccccc2)c1Nc1cccc(O)c1`, the IC50 is at most 1000 nM. `Cc1ccc(Nc2c(C(N)=O)sc3c2ccc(=O)n3CC2CC2)cc1C` gave an IC50 of at most 1000 nM. `N#Cc1sc2c(ccc(=O)n2-c2ccccc2)c1Nc1ccccc1` gave an IC50 of at most 1000 nM. The molecule `O=C(NCCN1CCCCC1)c1sc2c(ccc(=O)n2-c2ccccc2)c1Nc1ccc(F)cc1F` had an IC50 of at most 1000 nM.

Take `Cc1cc(Nc2c(C#N)sc3c2ccc(=O)n3-c2ccccc2C)ccc1F`: the IC50 was at most 1000 nM. In turn, `CCOC(=O)c1sc2c(ccc(=O)n2-c2ccc(F)cc2)c1Nc1ccc(F)c(C)c1` gave a half-inhibitory concentration (IC50) of at most 1000 nM. As to `NC(=O)c1sc2c(ccc(=O)n2-c2ccccc2)c1Nc1cccc(C(F)(F)F)c1`, the IC50 was at most 1000 nM. `CCOC(=O)c1sc2c(ccc(=O)n2-c2ccc(CN3CCCC3)cc2)c1Nc1ccccc1` gave an IC50 of at most 1000 nM. Then `N#Cc1sc2c(ccc(=O)n2-c2ccccc2)c1Nc1cccc(Cl)c1`, with at most 1000 nM; and `N#Cc1cccc(Nc2c(C(=O)N3CCCC3)sc3c2ccc(=O)n3-c2ccccc2)c1`, with at most 1000 nM. As for `CCOC(=O)c1sc2c(ccc(=O)n2-c2ccc(F)cc2)c1Nc1cccc(C)c1C#N`, the IC50 is at most 1000 nM. Molecule `Cc1cccc(Nc2c(C#N)sc3c2ccc(=O)n3CC2CC2)c1` registered an IC50 of at most 1000 nM. `CCOC(=O)c1sc2c(ccc(=O)n2-c2ccccc2)c1Nc1cccc(Cl)c1C#N`: the IC50 was at most 1000 nM. Take `CC(C)(CO)NC(=O)c1sc2c(ccc(=O)n2-c2ccccc2)c1Nc1ccccc1`: the IC50 is at most 1000 nM.

The molecule `CCOC(=O)c1sc2c(ccc(=O)n2CC2CC2)c1Nc1cccc(Br)c1` showed an IC50 of at most 1000 nM. The value for `CN1CCN(CCCNC(=O)c2sc3c(ccc(=O)n3-c3ccccc3)c2Nc2ccccc2)CC1` was at most 1000 nM. `CCOC(=O)c1sc2c(ccc(=O)n2-c2ccccc2)c1Nc1ccccc1C#N` returned a half-inhibitory concentration (IC50) of at most 1000 nM. In turn, `CCOC(=O)c1sc2c(ccc(=O)n2-c2ccccc2)c1Nc1ccc(F)cc1F` gave an IC50 of at most 1000 nM.

Turning to `CCOC(=O)c1sc2c(ccc(=O)n2-c2ccccc2)c1Nc1ccccc1Cl`, the IC50 was at most 1000 nM. In turn, `CCc1cccc(Nc2c(C#N)sc3c2ccc(=O)n3-c2ccccc2)c1` showed an IC50 of at most 1000 nM. As to `NC(=O)c1sc2c(ccc(=O)n2CC2CC2)c1Nc1ccccc1`, the IC50 is at most 1000 nM. Molecule `Cc1ccc(-n2c(=O)ccc3c(Nc4ccc(F)c(C)c4)c(C(N)=O)sc32)cc1` displayed an IC50 of at most 1000 nM. Regarding `CCOC(=O)c1sc2c(ccc(=O)n2-c2ccc([S+](C)[O-])cc2)c1Nc1ccccc1` (configuration not stated), the IC50 is at most 1000 nM.

Molecule `CCOC(=O)c1sc2c(ccc(=O)n2-c2ccsc2)c1Nc1ccccc1C#N` yielded an IC50 of at most 1000 nM. Then `CCOC(=O)c1sc2c(ccc(=O)n2-c2ccc([S+](C)[O-])cc2)c1Nc1ccccc1C#N` (configuration not stated), with at most 1000 nM; and `CCOC(=O)c1sc2c(ccc(=O)n2-c2ccc(SC)cc2)c1Nc1ccccc1C#N`, with at most 1000 nM.

With `N#Cc1sc2c(ccc(=O)n2-c2ccccc2)c1Nc1cccc(SC(F)(F)F)c1`, the IC50 is at most 1000 nM. Turning to `O=C(O)c1sc2c(ccc(=O)n2-c2ccc3[nH]ccc3c2)c1Nc1ccccc1`, the IC50 is at most 1000 nM.

Molecule `CCN(CC)C(=N)c1sc2c(ccc(=O)n2-c2ccccc2)c1Nc1cccc(C)c1` had an IC50 of at most 1000 nM. `O=C(c1sc2c(ccc(=O)n2-c2ccccc2)c1Nc1ccccc1)N1CCCCC1` yielded an IC50 of at most 1000 nM.

For `N#Cc1ccccc1Nc1c(C(N)=O)sc2c1ccc(=O)n2-c1ccc(F)cc1`, the IC50 is at most 1000 nM. The value for `CCOC(=O)c1sc2c(ccc(=O)n2-c2ccc(N(C)C)cc2)c1Nc1ccccc1` was at most 1000 nM; that for `CCOC(=O)c1sc2c(ccc(=O)n2-c2ccccc2)c1Nc1cc(C)ccc1C#N` was at most 1000 nM; that for `Cc1cc(Nc2c(C(N)=O)sc3c2ccc(=O)n3CC2CC2)ccc1F` was at most 1000 nM.

Molecule `O=C(NCCCN1CCOCC1)c1sc2c(ccc(=O)n2-c2ccccc2)c1Nc1ccccc1` showed an IC50 of at most 1000 nM. `Cc1cccc(Nc2c(C(N)=O)sc3c2ccc(=O)n3-c2ccccc2)n1` returned an IC50 of at most 1000 nM. The value for `Cc1ccc(C#N)c(Nc2c(C(N)=O)sc3c2ccc(=O)n3-c2ccccc2)c1` was at most 1000 nM; that for `CCOC(=O)c1sc2c(ccc(=O)n2-c2ccccc2)c1Nc1ccc(F)cc1` was at most 1000 nM; that for `CNC(=O)c1sc2c(ccc(=O)n2-c2ccccc2)c1Nc1ccccc1` was at most 1000 nM.

`CCOC(=O)c1sc2c(ccc(=O)n2CCOCCOC)c1Nc1ccccc1` came in with an IC50 of at most 1000 nM. Then `NC(=O)c1sc2c(ccc(=O)n2-c2ccccc2)c1Nc1ccccc1O`, with at most 1000 nM.

With `Cc1cccc(Nc2c(C(N)=O)sc3c2ccc(=O)n3CC2CC2)c1C#N`, the IC50 was at most 1000 nM. Then `O=C(c1sc2c(ccc(=O)n2-c2ccccc2)c1Nc1ccc(F)cc1)N1CCCC1`, with at most 1000 nM; and `Cc1cccc(Nc2c(C#N)sc3c2ccc(=O)n3-c2ccccc2Cl)c1`, with at most 1000 nM. For `N#Cc1ccccc1Nc1c(C(N)=O)sc2c1ccc(=O)n2-c1ccc2[nH]ccc2c1`, the IC50 was at most 1000 nM.

On to `CCOC(=O)c1sc2c(ccc(=O)n2-c2ccc(SC)cc2)c1Nc1ccccc1`, for which the IC50 is at most 1000 nM. Regarding `NC(=O)c1sc2c(ccc(=O)n2-c2ccccc2)c1Nc1ccc(F)cc1F`, the IC50 is at most 1000 nM. `NC(=O)c1sc2c(ccc(=O)n2-c2ccccc2)c1Nc1ccccc1` came in with an IC50 of at most 1000 nM. As for `N#Cc1sc2c(ccc(=O)n2-c2ccc(OC[C@H](O)CO)cc2)c1Nc1ccc(F)cc1F`, the IC50 is at most 1000 nM. Consider `N#Cc1sc2c(ccc(=O)n2-c2ccccc2)c1Nc1ccccc1O`, for which the IC50 was at most 1000 nM. As for `CCOC(=O)c1sc2c(ccc(=O)n2-c2ccccc2)c1Nc1cccc(C#N)c1`, the IC50 was at most 1000 nM. Then `CCOC(=O)c1sc2c(ccc(=O)n2-c2ccc(Cl)cc2)c1Nc1ccc(F)c(C)c1`, with at most 1000 nM; and `NC(=O)c1sc2c(ccc(=O)n2-c2ccccc2)c1Nc1cccc(SC(F)(F)F)c1`, with at most 1000 nM. `N#Cc1sc2c(ccc(=O)n2-c2ccccc2Cl)c1Nc1ccccc1`: the IC50 was at most 1000 nM. The molecule `Cc1ccc(Nc2c(C(N)=O)sc3c2ccc(=O)n3CC2CC2)c(C)c1` registered an IC50 of at most 1000 nM.

Molecule `CON(C)C(=O)c1sc2c(ccc(=O)n2-c2ccc(N(C)C)cc2)c1Nc1ccccc1` gave an IC50 of at most 1000 nM.

As for `CCOC(=O)c1sc2c(ccc(=O)n2-c2ccsc2)c1Nc1ccc(F)cc1F`, the IC50 was at most 1000 nM. The value for `C=Cc1ccc(-n2c(=O)ccc3c(Nc4ccccc4)c(C(=O)OCC)sc32)cc1` was at most 1000 nM; that for `Cc1ccc(Nc2c(C(N)=O)sc3c2ccc(=O)n3-c2ccccc2)cc1Br` was at most 1000 nM. Turning to `CCOC(=O)c1sc2c(ccc(=O)n2-c2ccccc2)c1N(C)c1ccccc1`, the half-maximal inhibitory concentration (IC50) is at most 1000 nM. Then `Cc1cccc(Nc2c(C#N)sc3c2ccc(=O)n3C2CC2)c1`, with at most 1000 nM.

In turn, `N#Cc1sc2c(ccc(=O)n2-c2ccccc2)c1Nc1cccc(OC(F)(F)F)c1` displayed a concentration for half-maximal inhibition (IC50) of at most 1000 nM. The molecule `CCOC(=O)c1sc2c(ccc(=O)n2-c2ccc3c(ccn3S(C)(=O)=O)c2)c1Nc1ccccc1C#N` came in with a concentration for half-maximal inhibition (IC50) of at most 1000 nM. Molecule `Cc1ccc(Nc2c(C#N)sc3c2ccc(=O)n3CC2CC2)cc1C` registered an IC50 of at most 1000 nM. Regarding `Cc1cccc(Nc2c(C#N)sc3c2ccc(=O)n3-c2ccc(F)cc2)c1`, the IC50 is at most 1000 nM. Regarding `Cc1cccc(Nc2c(C(N)=O)sc3c2ccc(=O)n3-c2ccccc2C)c1`, the IC50 is at most 1000 nM. `O=C(c1sc2c(ccc(=O)n2-c2ccccc2)c1Nc1ccc(F)cc1F)N1CCOCC1` came in with an IC50 of at most 1000 nM. Then `N#Cc1sc2c(ccc(=O)n2-c2ccccc2)c1Nc1ccccc1OC(F)(F)F`, with at most 1000 nM; and `CCOC(=O)c1sc2c(ccc(=O)n2-c2ccccc2)c1Nc1cccc(OC(F)(F)F)c1`, with at most 1000 nM; and `N#Cc1cccc(Nc2c(C(N)=O)sc3c2ccc(=O)n3-c2ccccc2)c1`, with at most 1000 nM. The value for `CCOC(=O)c1sc2c(ccc(=O)n2-c2ccc(SC)cc2)c1Nc1cccc(C)c1` was at most 1000 nM; that for `CCOC(=O)c1sc2c(ccc(=O)n2-c2ccsc2)c1Nc1ccccc1` was at most 1000 nM. Then `CSc1cccc(Nc2c(C(N)=O)sc3c2ccc(=O)n3-c2ccccc2)c1`, with at most 1000 nM. `N#Cc1sc2c(ccc(=O)n2-c2ccccc2)c1Nc1cccc([N+](=O)[O-])c1`: the IC50 is at most 1000 nM. As for `N#Cc1sc2c(ccc(=O)n2-c2cccnc2)c1Nc1ccccc1`, the IC50 is at most 1000 nM. Turning to `O=C(NCCN1CCCCC1)c1sc2c(ccc(=O)n2-c2ccccc2)c1Nc1ccccc1`, the IC50 is at most 1000 nM. The value for `CCOC(=O)c1sc2c(ccc(=O)n2-c2ccccc2[N+](=O)[O-])c1Nc1ccc(F)cc1F` was at most 1000 nM. `Cc1cccc(Nc2c(C#N)sc3c2ccc(=O)n3-c2ccccc2)c1` gave an IC50 of at most 1000 nM.

As to `CCOC(=O)c1sc2c(ccc(=O)n2CC2CC2)c1Nc1cccc(C)c1C#N`, the IC50 was at most 1000 nM. `N#Cc1sc2c(ccc(=O)n2-c2ccccc2)c1Nc1c(Cl)cccc1Cl` displayed an IC50 of at most 1000 nM. Take `NC(=O)c1sc2c(ccc(=O)n2-c2ccccc2Cl)c1Nc1ccccc1`: the IC50 was at most 1000 nM.

Take `O=C(NCCN1CCCCC1)c1sc2c(ccc(=O)n2CC2CC2)c1Nc1ccccc1`: the IC50 is at most 1000 nM.
